Test results taken from patent US12569470B2, “Vasodilator and use thereof” (Bioradical Research Institute Corp., priority 2019, dated 2026).

Tests used:
Type in all cases: cell-based
rat neuroid cells B50 [1] = experiment: Cytoprotection against singlet oxygen (Rose Bengal + G-LED), Alamar Blue fluorescence; settings: 0, 12.5, 25, 50, or 100 μmol/1, RB 200 nmol/1 + G-LED 5 minutes, negative control being 100, FIG. 3
Method: Edaravone, ED2AP and BisEp-C3 were examined for whether they had the function of alleviating neuronopathy. Specifically, singlet oxygen was generated by combining Rose Bengal (RB), which is a sensitizer, with green light (G-LED), and the function of alleviating the cytotoxicity of the generated singlet oxygen was examined with the cellular activity being an indicator.
First, rat neuroid cells B50 were cultured in 12-well dishes at 2×10^5 cells/well (medium: RPMI-1640 medium containing 5% FCS) overnight. After the culturing, the medium of each well was replaced with HBSS (1,000 μl/well; phenol red-free Ca+, Mg+) containing 200 nmol/1 RB and edaravone, ED2AP, or BisEp-C3 having a predetermined concentration (0, 12.5, 25, 50, or 100 μmol/1). The dish was then irradiated with G-LED for 5 minutes to generate singlet oxygen. Thereafter, the medium of each well was replaced with 1,000 μl of HBSS, and Alamar Blue was added. The dish was then allowed to react for about 2 hours in an incubator at 37° C. and 5%CO2. After the reaction, fluorescence intensity (excitation wavelength: λ- 560 nm, fluorescence wavelength: λ-595 nm) was measured with a plate reader (infinite200, Tecan Trading AG). In this experimental system, the higher the cellular activity, the more Alamar Blue is taken up and the higher the fluorescence intensity. As a control, fluorescence intensity was measured in the same manner except that sodium azide (Azide, NaN3) was added instead of the compounds so as to achieve a concentration of 4 mmol/1. As a negative control (NC), fluorescence intensity was measured in the same manner except that RB was not added. The relative value of the fluorescence intensity in the sample to which each compound was added was calculated with the fluorescence intensity of the negative control being 100.

rat neuroid cells B50 [2] = experiment: Toxicity evaluation, cell viability by Alamar Blue; settings: 12.5, 25, 50, 100, or 200 μmol/1, 24 hours, FIG. 5
Method: Rat neuroid cells B50 were seeded in 12-well plates and then cultured. Edaravone (RC), ED2AP, or BisEp-C3 was added to each well so as to achieve a predetermined concentration (12.5, 25, 50, 100, or 200 μmol/1), and then incubated for 24 hours at 37° C. and 5% CO2. Cell viability in each well after the culture was measured using Alamar Blue.

rat neuroid cells B50 [3] = experiment: Toxicity evaluation on byproducts after reaction with singlet oxygen; settings: byproducts after reaction with singlet oxygen, 50, 100, or 200 μmol/1, FIG. 6
Method: In a cell-free system, the RB was added to media (5% FCS-containing RPMI-1640 media) containing edaravone, ED2AP, and BisEp-C3 having a predetermined concentration (50, 100, or 200 μmol/1) and then irradiated with LED (G-LED) at 525 nm to generate singlet oxygen, whereby reacting each compound with singlet oxygen. The cell viability was measured in the same manner as in Example 7(1), except that the culture solution after the reaction was used as a medium of the neuroid cell B50. As a negative control (NC), the cell viability was measured in the same manner except that each compound and […] were not added in the cell-free system. Further, as a control (RB), the cell viability was measured in the same manner except that each compound was not added and only […] was added in the cell-free system.

## CC1=NN(c2ccccc2)C(=O)C1 [Edaravone, 3-methyl-1-phenyl-5-pyrazolone, reference compound]
Rat neuroid cells B50 [1]
  relative value of the fluorescence intensity: not recovered
Rat neuroid cells B50 [2]
  cell viability (cytotoxicity): not cytotoxic at any concentration
Rat neuroid cells B50 [3]
  cell viability (cytotoxicity of byproducts): not cytotoxic at any concentration
